Earlier results as cited in patent US20040158054A1, “Di-ribonucleotides as specific viral RNA-polymerase inhibitors for the treatment or prevention of viral infections” (priority 2003, published 2004).

Columns and labels:
[1] = system: 6-mercaptopurine-resistant cancer cell lines

**Q.** For `O=P(O)(OC[C@H]1O[C@@H](n2cnc3c(=S)[nH]cnc32)[C@H](O)[C@@H]1O)OC[C@H]1O[C@@H](n2cnc3c(=S)nc[nH]c32)[C@H](O)[C@@H]1O` [bis(thioinosine)-5′,5′-phosphate], which “fold more potent against neoplastic cells than 6-MP” value (neoplastic cells; relative to 6-MP) is on record?
**A.** 240 fold

**Q.** What about the “fold more potent against neoplastic cells than 6-MP riboside” value (neoplastic cells; relative to 6-MP riboside) of the same molecule?
**A.** 25 fold

**Q.** What about the “inhibition of 6-mercaptopurine-resistant cancer cell lines” value [1] of the same molecule?
**A.** inhibit
